Source: US20190175766A1, “STABILIZED CROSSLINKED NANOBUBBLES FOR DIAGNOSTIC AND THERAPEUTIC APPLICATIONS” (CASE WESTERN RESERVE UNIVERSITY, priority 2016, published 2019)

Columns and labels:
[1] = system: LS174-T cells; test: Measurement of intracellular drug uptake; format: cell-based, human; conditions: with and without TUS
Description: LS174-T cells were grown in a 12-well cell culture plate at a cell concentration of 2.5×10^4 cells/ml one day before the treatment. The treatment groups were the same as cell toxicity test above. After 2 h treatment in incubator, the drugs were aspirated and washed with sterile PBS 3 times. The attached cells were fixed with 3% formaldehyde solution for 10 min. After 3 times wash with PBS, the cells of different treatment groups were imaged at 5× and 20× on the Zeiss Axio Observer Z1 motorized FL microscope with the same parameter and scanned zones. Average Dox fluorescence of cells in different treatment groups was calculated by ImageJ.

[2] = system: LS174T cell line; test: Cell toxicity test (WST-1); format: cell-based, human
Description: LS174-T human colorectal adenocarcinoma cells (ATCC, Manassas, Va.) were cultured in complete MEM medium (10% fetal bovine serum, 1% penicillin-streptomycin; Invitrogen, Carlsbad, Calif.) and placed in a humidified atmosphere at 37° C. and 5% CO2. Cells were passaged until they were 90% confluent, then detached with 0.25% trypsin-EDTA (Invitrogen, Carlsbad, Calif.).
One day prior to the treatment, cells were passaged at confluence and plated in flat bottom, clear, cell culture treated 96-well plates (Falcon, Franklin Lakes, N.J.) using a cell density of 2.5×10^4 cells/ml, 100 ul for each well overnight. After 24 h of incubation, the surface medium were aspirated carefully and cells were treated for 3 h as following groups: • 1 No treat Incomplete MEM medium were added. • 2. Dox 1 μg/ml Doxorubicin in incomplete MEM medium were added. • 3. Dox-NB 2000 times diluted original Dox-NB in incomplete MEM medium were added. • 4. […]
Plate wells were filled with relevant treatment medium, sealed with Parafilm® M (Fisher Scientific; Pittsburgh, Pa.), then inverted the plate to ensure the cells contact with Dox-NB for 20 min. […] After that, 1:10 diluted solution of WST-1 reagent ( ) replaced the medium and incubated for 1 h and then the plate was scanned with a TECAN plate reader (infinite M200, San Jose, Calif.) at 450 nm.

COc1cccc2c1C(=O)c1c(O)c3c(c(O)c1C2=O)C[C@@](O)(C(=O)CO)C[C@@H]3O[C@H]1C[C@H](N)[C@H](O)[C@H](C)O1 [Dox, Doxorubicin]
location of Dox in treated cells [1]: mainly located in nuclei
Fluorescence value (cell viability test) ([2]; plus therapeutic ultrasound (TUS) 3 MHz, 2 W/cm2, 1 min): 0.28 ± 0.06
Fluorescence value (cell viability test) ([2]; without TUS, Dox 1 μg/ml, Dox-NB 2000 times diluted): 0.36 ± 0.10
